Experimental findings from patent US6083967A, “S-oxide and S,S-dioxide tetrahydrothiopyran phenyloxazolidinones” (Pharmacia & Upjohn Company, priority 1998, dated 2000) are described below.

Molecules are shown by their SMILES. pKi: −log10 of the molar value. ≈ marks a conversion by molar mass, not a printed value. Some results are limits rather than exact numbers.

Assay [1] concerns S. aureus UC 9213. As to the kind of experiment: MIC by agar dilution against S. aureus UC 9213. It is filed as cell-based. The note with it: Staphylococcus aureus, UC9213, in vitro. From the text: (§1) The oxazolidinone antibacterial agents of this invention have useful activity against a variety of organisms. The in vitro activity of compounds of this invention can be assessed by standard testing procedures such as the determination of minimum inhibitory concentration (MIC) by agar dilution as described in "Approved Standard. Methods for Dilution Antimicrobial Susceptibility Tests for Bacteria That Grow Aerobically", 3rd. ed., published 1993 by the National Committee for Clinical Laboratory Standards, Villanova, Pa., USA.

The subject of assay [2] is H. influenzae 30063. As to the kind of experiment: MIC by agar dilution against H. influenzae 30063. The conditions noted are these: Haemophilus influenzae, in vitro. It counts as cell-based.
Description: as §1
On the technique in general: In agar dilution, organisms are placed on agar that contains the substance at set levels.

Assay [3] has as its target T1, human MAO A (Homo sapiens, UniProt P21397).
T1 construct: Human placental MAO A is solubilized and purified as described; from tissue; host or cells: human placenta (enzyme supplied by Dr. Neal Castagnoli Jr's lab, Virginia Technical University)
T1 sequence (P21397 1-527): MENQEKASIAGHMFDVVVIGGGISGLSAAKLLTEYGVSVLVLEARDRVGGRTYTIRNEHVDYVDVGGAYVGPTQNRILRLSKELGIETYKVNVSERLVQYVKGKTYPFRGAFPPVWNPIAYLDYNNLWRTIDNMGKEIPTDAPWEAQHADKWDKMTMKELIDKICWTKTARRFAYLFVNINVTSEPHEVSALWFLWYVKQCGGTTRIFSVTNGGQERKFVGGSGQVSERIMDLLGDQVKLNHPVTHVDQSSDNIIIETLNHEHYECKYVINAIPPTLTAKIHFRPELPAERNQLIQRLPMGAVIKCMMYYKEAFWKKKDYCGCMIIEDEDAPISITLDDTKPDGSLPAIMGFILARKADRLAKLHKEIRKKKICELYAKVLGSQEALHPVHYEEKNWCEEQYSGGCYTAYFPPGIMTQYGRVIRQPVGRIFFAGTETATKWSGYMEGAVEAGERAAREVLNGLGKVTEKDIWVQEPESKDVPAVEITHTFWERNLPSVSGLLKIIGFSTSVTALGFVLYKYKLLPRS
As to the kind of experiment: Continuous spectrophotometric assay of inhibitory activity to human MAO-A. The conditions noted are these: pH 7.3, 37° C., 80 μM substrate, 1% DMSO, 15 minutes pre-incubation; read-out: Ki, inhibition of human MAO A. It is filed as biochemical. An excerpt:
The continuous spectrophotometric assay for measuring MAO activity is based on a colored oxidation product of the chromogenic substrate, 1-methyl-4-(1-methyl-2-pyrryl)-1,2,3,6-tetrahydropyridine, by MAO enzymes. The product is stable for many days at room temperature. The conversion of the substrate to the oxidation product is followed continuously from the moment of mixing of the MAO enzyme with the substrate and the initial reaction rate curve is directly observed. The bright yellow-green oxidation product has a peak absorption at 421 nm with a broad band that can be measured between 390 nm to 440 nm. Thus, the assay can be performed on the least sophisticated spectrophotometric equipment.
Human placental MAO A is solubilized and purified as described in N. Castagnoli Jr. et al., J. Med Chem. Vol. 39, pp. 4756-4761 (1996) and J. I. Salach et al., J. of Bio. Chem., Vol. 260, p. 13199 (1985). The human placental MAO A is obtained as a concentrated solution (5 nmols per ml). Bovine liver MAO B is purified as described N. Castagnoli Jr. et al., J. Med Chem., Vol. 39, pp. 4756-4761 (1996) and J. I. Salach et al., Methods Enzymol., Vol. 142, pp […] (1987). The bovine liver MAO B is obtained as a concentrated solution (8 nmols per ml). Working stocks of the enzyme solutions are made by 1/50 dilution of initial stocks into 50 mM sodium phosphate and optionally 10% glycerol. The solutions are kept on ice until final dilution into the assay. Alternatively, the frozen MAO enzymes may be diluted 800-3200 fold into the 50 mM sodium phosphate buffer immediately before use. This method is useful when screening a large number of oxazolidinones.
Oxazolidinones are prepared in DMSO at a concentration of 50 mM. Serial dilutions of the 50 mM stock solution are made in DMSO to form additional stock solutions ranging from […] to 0.3125 mM. The stock solutions are then frozen until use. The stocks are diluted 1/100 into the final enzyme assay volume at the time of assay.
Typically, the enzyme, along with an oxazolidinone inhibitor, are preincubated for approximately 15 minutes in the sodium phosphate buffer prior to assay. The reactions are started by addition of the substrate. Initial velocities are generally collected over an interval of one to sixty minutes.
The assay functions well in the spectrophotometer cuvette for evaluating single oxazolidinone's MAO inhibitory activity. The assay has also been successfully adapted to operate in high throughput microtiterplate format (i.e., 96, 384 and 1536 well plate readers). Hundreds of assays can be run simultaneously. Assay volumes are 250 μL and the wells have an effective path length of 0.75 cm. Generally, the final composition of the assay in the microtiterplate comprises […] sodium phosphate (pH=7.3), oxazolidinone having concentration ranging up to 500 μM, 1% DMSO, 80 μM substrate (MAO A) or 200 μM substrate (MAO B), and sufficient enzyme to produce an absorbance change from 0.0005 to 0.050 per minute at 421 nm. The reaction is run at 37° C., and rapid temperature equilibration of the assay solution is achieved by preincubating the plate and stock solutions at about 37° C. The reaction is followed by recording the increase in absorbance at 421 nm. The oxidation product has an extinction coefficient of 25,000 M^-1 cm^-1 at 420. See: N. Castagnoli Jr. et al., J. Med Chem., Vol. 39, pp. 4756-4761 (1996). Initial rates are determined by linear regression of the progress curves over an absorbance change of 0.06-0.12 at 421 nm. This range represents a substrate consumption of approximately 5% in the assay. The percentage inhibition of an oxazolidinone is determined from the following equation
In the above equation, the term "negative control" refers to a complete assay with 1% of DMSO but no MAO enzyme. The term "positive control" refers to a complete assay with 1% of DMSO but no inhibitor. The term "rate (I)" refers to the reaction rate under a complete assay conditions. […]

Usually pKi stands for the negative decadic logarithm of the Ki, by convention in mol/L. With `O=C(NC[C@H]1CN(c2ccc(C3CCS(=O)(=O)CC3)c(F)c2)C(=O)O1)C(Cl)Cl` [Example 6, (-)-2,2-dichloro-N-[[(5S)-3-[3-fluoro-4-(tetrahydro-1,1-dioxido-2H-thiopyran-4-yl)phenyl]-2-oxo-5-oxazolidinyl]methyl]acetamide], the MIC in assay [1] and in assay [2] was 2 µg/mL (≈ 4.41 µM) in each case. In addition, the pKi in assay [3] is < 2.52.
For `CCC(=O)NC[C@H]1CN(c2ccc([C@H]3CC[S@+]([O-])CC3)c(F)c2)C(=O)O1` [Example 7, (-)-N-[[(5S)-3-[3-fluoro-4-(trans-tetrahydro-1-oxido-2H-thiopyran-4-yl)phenyl]-2-oxo-5-oxazolidinyl]methyl]propanamide], the MIC in assay [1] and in assay [2] was 4 µg/mL (≈ 10.5 µM) each time. For the same molecule, the pKi in assay [3] was 3.04.
Consider `O=C(NC[C@H]1CN(c2ccc([C@H]3CC[S@@+]([O-])CC3)c(F)c2)C(=O)O1)C(Cl)Cl` [Example 4, (-)-2,2-Dichloro-N-[[(5S)-3-[3-fluoro-4-(cis-tetrahydro-1-oxido-2H-thiopyran-4-yl)phenyl]-2-oxo-5-oxazolidinyl]methyl]acetamide], for which the MIC in assay [1] was 2 µg/mL (≈ 4.57 µM); in assay [2], 8 µg/mL (≈ 18.3 µM). Further, the pKi in assay [3] was 2.59.
As for `O=C(NC[C@H]1CN(c2ccc([C@H]3CC[S@@+]([O-])CC3)c(F)c2)C(=O)O1)C1CC1` [Example 3, (-)-N-[[(5S)-3-[3-fluoro-4-(cis-tetrahydro-1-oxido-2H-thiopyran-4-yl)phenyl]-2-oxo-5-oxazolidinyl]methyl]cyclopropanecarboxamide], the MIC in assay [1] was found to be 8 µg/mL (≈ 20.3 µM); in assay [2], 16 µg/mL (≈ 40.6 µM). In addition, the pKi in assay [3] was 3.13.
Take `CC(=O)NC[C@H]1CN(c2ccc([C@H]3CC[S@@+]([O-])CC3)c(F)c2)C(=O)O1` [Example 1, (-)-N-[[(5S)-3-[3-fluoro-4-(cis-tetrahydro-1-oxido-2H-thiopyran-4-yl)phenyl]-2-oxo-5-oxazolidinyl]methyl]acetamide]: the results for the MIC in assay [1] and in assay [2] were 4 µg/mL (≈ 10.9 µM) and 8 µg/mL (≈ 21.7 µM), respectively. Also, the negative logarithm of the Ki (pKi) in assay [3] was 3.19.
With `CCC(=O)NC[C@H]1CN(c2ccc(C3CCS(=O)(=O)CC3)c(F)c2)C(=O)O1` [Example 5, (-)-N-[[(5S)-3-[3-fluoro-4-(tetrahydro-1,1-dioxido-2H-thiopyran-4-yl)phenyl]-2-oxo-5-oxazolidinyl]methyl]propanamide], the figures for the MIC in assay [1] and in assay [2] were 4 µg/mL (≈ 10 µM) and 8 µg/mL (≈ 20.1 µM), respectively. Besides, in assay [3], the negative-log Ki (pKi) was 2.52.
Turning to `O=C(NC[C@H]1CN(c2ccc([C@H]3CC[S@+]([O-])CC3)c(F)c2)C(=O)O1)C1CC1` [Example 8, (-)-N-[[(5S)-3-[3-fluoro-4-(trans-tetrahydro-1-oxido-2H-thiopyran-4-yl)phenyl]-2-oxo-5-oxazolidinyl]methyl]cyclopropanecarboxamide], the MIC in assay [1] came to 8 µg/mL (≈ 20.3 µM); in assay [2], 16 µg/mL (≈ 40.6 µM). Also, in assay [3], the pKi is < 2.52.
For the molecule `O=C(NC[C@H]1CN(c2ccc([C@H]3CC[S@+]([O-])CC3)c(F)c2)C(=O)O1)C(Cl)Cl` [Example 9, (-)-2,2-dichloro-N-[[(5S)-3-[3-fluoro-4-(trans-tetrahydro-1-oxido-2H-thiopyran-4-yl)phenyl]-2-oxo-5-oxazolidinyl]methyl]acetamide], the MIC in assay [1] turned out to be 1 µg/mL (≈ 2.29 µM); in assay [2], 2 µg/mL (≈ 4.57 µM). In assay [3], the pKi was 3.40.
As to `CCC(=O)NC[C@H]1CN(c2ccc([C@H]3CC[S@@+]([O-])CC3)c(F)c2)C(=O)O1` [Example 2, (-)-N-[[(5S)-3-[3-fluoro-4-(cis-tetrahydro-1-oxido-2H-thiopyran-4-yl)phenyl]-2-oxo-5-oxazolidinyl]methyl]propanamide], the values for the MIC in assay [1] and in assay [2] were 8 µg/mL (≈ 20.9 µM) and 16 µg/mL (≈ 41.8 µM), respectively. Further, the negative-log Ki (pKi) in assay [3] is < 2.52.
